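Results reflect a 48-hour exposure of cells in 96-well plates to compound at five concentrations. GI50 = concentration required for 50% inhibition of growth. At the TGI there is no net growth.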
Assays:
Experiment in all cases: NCI tumour cell line growth inhibition, 48 h
UO-31 renal = system: UO-31 renal
CAKI-1 renal = system: CAKI-1 renal
HOP-62 NSCLC = system: HOP-62 NSCLC
SR leukemia = system: SR leukemia
PC-3 prostate = system: PC-3 prostate
SW-620 colon = system: SW-620 colon
EKVX NSCLC = system: EKVX NSCLC
OVCAR-4 ovarian = system: OVCAR-4 ovarian

Row | SMILES | GI50 (UO-31 renal) [µM] | TGI (UO-31 renal) [µM] | GI50 (CAKI-1 renal) [µM] | TGI (CAKI-1 renal) [µM] | GI50 (HOP-62 NSCLC) [µM] | TGI (HOP-62 NSCLC) [µM] | GI50 (SR leukemia) [µM] | TGI (SR leukemia) [µM] | GI50 (PC-3 prostate) [µM] | TGI (PC-3 prostate) [µM] | GI50 (SW-620 colon) [µM] | TGI (SW-620 colon) [µM] | GI50 (EKVX NSCLC) [µM] | TGI (EKVX NSCLC) [µM] | GI50 (OVCAR-4 ovarian) [µM] | TGI (OVCAR-4 ovarian) [µM]
1 | CC[C@@]12C=CCN3CC[C@]4(c5cc(NC(=O)COc6cc(OCC(=O)Nc7cc8c(cc7OC)N(C)[C@H]7[C@@](O)(C(=O)OC)[C@H](OC(C)=O)[C@]9(CC)C=CCN%10CC[C@]87[C@@H]%109)cc7oc(-c8ccccc8)cc(=O)c67)c(OC)cc5N(C)[C@@H]4[C@](O)(C(=O)OC)[C@H]1OC(C)=O)[C@H]32 | > 100 | > 100 | 4.52 | > 100 | 3.08 | > 100 | 2.06 | > 100 | 2.91 | > 100 | 3.89 | 26.2 | 3.28 | > 100 |  | 
2 | CCN(CC)CCOc1c(OC)c(Br)cc2c(C)c(C(=O)OC)oc12 | 3.19 | 50 | 1.26 | 3.5 |  |  | 0.542 | 1.31 | 0.368 | 1.03 | 0.802 | 2.04 | 1.55 | 5.01 |  | 
3 | CC(=O)c1cccc(-c2cccc(-c3ccn(CCN4CCOCC4)n3)c2)c1 | > 20 | > 20 | > 20 | > 20 | > 20 | > 20 | > 20 | > 20 | > 20 | > 20 | > 20 | > 20 |  |  | > 20 | > 20
4 | COC(=O)c1ccc(CN2C(=O)C(Cl)=C(Nc3ccc(OC)c(Cl)c3)C2=O)cc1 | 31.8 | > 50 | 17.3 | > 50 | 22.7 | > 50 | 4.08 | 36.9 | 44.3 | > 50 | > 50 | > 50 | 22.3 | > 50 |  | 
5 | COC(=O)[C@]1(C)CCC[C@@]2(C)[C@@H]3C[C@@H]4[C@H]5C[C@@]3(CC[C@@H]21)C[C@@]45C |  | 29.4 |  | 30 |  | 32.2 |  |  |  | 29.3 |  | 62.6 |  | 31.7 |  | 26.7
6 | CCOC(=O)Nc1nc2cc(OCC)ccc2s1 | > 100 | > 100 | > 75.4 | > 100 | 38.4 | > 100 | 1.52 | > 100 | > 100 | > 100 | 4.74 | > 100 |  |  | > 100 | > 100
7 | Cn1cc(C2=C(c3cn(C)c4cc(N)ccc34)C(=O)NC2=O)c2ccccc21 | 2.54 | 15.4 | 1.39 | > 15 | 3.86 | > 25 | 0.364 | 4.02 | 2.92 | > 20.6 | 1.5 | > 25 |  |  | 4.41 | 17.4
8 | CCCCN(CCCC)CCc1c(C)cc(C)c(CCN(CCCC)CCCC)c1O | 2.69 | 16.8 | 2.17 | 7.35 | 3.3 | 16.8 | 2.16 | 12.7 |  |  | 2.88 | > 100 |  |  | 3.13 | > 100
9 | CN1c2ccccc2S(=O)(=O)n2c(CCc3ccccc3)nnc21 |  | > 100 |  | > 100 |  | > 100 |  |  |  | > 100 |  | > 100 |  | > 100 |  | > 100
10 | O=C(O)c1cccc(/C=C/c2ccccc2)c1 |  | > 100 |  | > 100 |  | > 100 |  |  |  | > 100 |  | > 100 |  | > 100 |  | > 100
11 | COc1ccc(/C=C\c2cc(OC)c(OC)c(OC)c2)c(NS(=O)(=O)c2ccc(Cl)cc2)c1O | 0.0739 | 26.4 | 0.0542 | 28.7 | 0.671 | 46.1 | 0.0306 | 10.4 | 0.153 | > 100 | 0.0694 | > 100 |  |  | 0.0973 | > 100
12 | C[C@]12CC[C@H]3[C@@H](CC[C@]4(O)C[C@@H](O)CC[C@]34CO)[C@@]1(O)CC[C@@H]2C1=CC(=O)OC1 |  |  |  |  |  | 3.89 |  | > 100 |  | 10.5 |  | > 27 |  | 3.49 |  | 
13 | CCCCN(CC)c1ncnc2ccc(Br)cc12 | 19.9 | 98.7 | 8.7 | 29 | 16.9 | 34 | 8.42 | 34.2 | 18.9 | 49.6 |  |  |  |  | 22.1 | > 100
14 | CC[C@H](Nc1nc(N)nc(C2CC2)c1C#N)c1nc2cccc(NCc3ccc(C(=O)NO)cc3)c2c(=O)n1-c1ccccc1 | 1.26 | 2.59 | 1.5 | 3.38 | 1.63 | 4.29 |  |  | 2.11 | 14.6 | 1.73 | 4.81 | 1.75 | 3.73 | 2.6 | > 100

Source: PubChem BioAssay (NCI)
